According to patent publication US20180251847A1, “METHOD OF PREDICTING THE TUMOR RESPONSE TO DNA METHYLATION INHIBITORS AND ALTERNATIVE THERAPEUTIC REGIMEN FOR OVERCOMING RESISTANCE” (PALACKY UNIVERSITY, OLOMOUC, priority 2014, published 2018):
Read-outs that look alike come from different tables or passages of the source.

How the values were obtained:
R2.1 (HCT116-RDAC) = assay: MTT based cell survival assay, DAC resistant HCT116 clone R2.1; set-up: species or system human
Protocol: (§1) The DAC resistant HCT116 cell lines were developed using two methods.
(§2) The method is primarily based on reduction of yellow colored tetrazolium salt, 3-(4,5-dimethylthiazol-2-yl)-2,5-diphenyltetrazolium bromide (MTT) to insoluble purple colored formazan crystals by NAD(P)H-dependent oxidoreductase enzymes in mitochondria of the viable cell.
(§3) Cells in 80 μL of medium were plated in each of the experimental and the control wells, followed by addition of 20 μL medium with five-fold drug concentration to experimental wells. The wells with medium alone were included alongside as blank for absorbance readings. After 72 h of drug treatment, 10 μL MTT (Sigma-Aldrich) prepared in 1×PBS (5 mg/mL) was added to all wells including blank and control, and incubated until the purple formazan crystals were visible after which 100 μL of detergent (10% SDS, pH: 5.5) was added and the plates were incubated overnight to solubilize the formazan and the cellular material.
(§4) Cross resistance was determined as the fold increase, whereas, the sensitivity was determined as the fold decrease in the IC50 of the drugs for the resistant cell lines compared to their genetically identical drug sensitive counterpart.

HL-60 = assay: MTT based cell survival assay, parental HL-60; conditions: Homo sapiens, HL-60, read-out: Mean IC50
Protocol: (§5) To study the mechanism of resistance towards DNA methylation inhibitor, 2′-deoxy-5-azacytidine, we used the human colorectal cancer cell line (HCT116), human promyelocytic leukemia cells (HL-60), and human breast adenocarcinoma cell line (MCF-7) obtained from American Type Culture Collection (Manassas, Va.). The cell lines were cultured in complete growth media (Sigma-Aldrich, St. Louis, Mo.), supplemented with fetal bovine serum (FBS, PAN-Biotech GmbH, Aidenbach, Germany), 100 U/mL penicillin (Biotika, Slovenská L'upča, Slovak Republic) and 50 μg/mL streptomycin (Sigma-Aldrich), and the cultures were maintained at 37° C. and 5% CO2, in a humidified incubator. […]
(§6) To determine the IC50 of the epigenetic drugs (Tocris Bioscience, Bristol, United Kingdom), four independent experiments were performed using triplicate wells of 96 well plates. […] The wells with medium alone were included alongside as blank for absorbance readings. […]
as §4

HL-60_RDAC = assay: MTT based cell survival assay, DAC resistant HL-60; set-up: species or system human
Protocol: For cross validation of data obtained from comparative studies of HCT116 parental and resistant cells, we further developed DAC resistant MCF-7 and HL-60 cell lines. […] However, DAC resistant HL-60 cells were obtained as a gift from the author (Qin T. et al., Blood 2009; 113, 659-67) and was further selected in our laboratory by treatment with 5 μM DAC.
MTT based cell survival assay was performed in either case, whether to determine the cross-resistance of the DAC resistant cell lines towards inhibitors of DNA methyltransferases, histone acetyltransferases, histone methyltransferases, histone deacetylases, and histone demethylases, or to determine their sensitivity towards selective BET bromodomain inhibitors. […]
as §6, §4

MCF-7 = assay: MTT based cell survival assay, parental MCF-7; conditions: Homo sapiens, MCF7, read-out: Mean IC50
Protocol: as §5, §6, §4

R1.2 (HCT116-RDAC) = assay: MTT based cell survival assay, DAC resistant HCT116 clone R1.2; set-up: species or system human
Protocol: as §1, §2, §3, §4

HCT116 = assay: MTT based cell survival assay, parental HCT116; set-up: species or system human; conditions: Homo sapiens
Protocol: To study the mechanism of resistance towards DNA methylation inhibitor, 2′-deoxy-5-azacytidine, we used the human colorectal cancer cell line (HCT116), human promyelocytic leukemia cells (HL-60), and human breast adenocarcinoma cell line (MCF-7) obtained from American Type Culture Collection (Manassas, Va.). The cell lines were cultured in complete growth media (Sigma-Aldrich, St. Louis, Mo.), supplemented with fetal bovine serum (FBS, PAN-Biotech GmbH, Aidenbach, Germany), 100 U/mL penicillin (Biotika, Slovenská L'upča, Slovak Republic) and 50 μg/mL streptomycin (Sigma-Aldrich), and the cultures were maintained at 37° C. and 5% CO2, in a humidified incubator. The cell line, HCT116 was grown in McCoy's 5 A medium supplemented with 10% FBS and 3 mM L-glutamine (Sigma-Aldrich), HL-60 was grown in Iscove's Modified Dulbecco's Medium with 20% FBS, and MCF-7 was grown in RPMI-1640 medium with 10% FBS.
as §2, with “cell. The intensity of the purple color produced on solubilization of the formazan crystals is directly proportional to the number of viable cells (Meerloo J. V. et al., Methods in Molecular Biology 2011; 731, 237-45).” for “cell.”
as §3, with “To determine the IC50 of the epigenetic drugs (Tocris Bioscience, Bristol, United Kingdom), four independent experiments were performed using triplicate wells of 96 well plates. Cells” for “Cells”, “[…],” for “After 72 h of drug treatment,”
as §4

R2.2 (HCT116-RDAC) = assay: MTT based cell survival assay, DAC resistant HCT116 clone R2.2; set-up: species or system human
Protocol: as §1, §2, §3, §4

R1.1 (HCT116-RDAC) = assay: MTT based cell survival assay, DAC resistant HCT116 clone R1.1; set-up: species or system human
Protocol: as §1, §2, §3, §4

R1.3 (HCT116-RDAC) = assay: MTT based cell survival assay, DAC resistant HCT116 clone R1.3; set-up: species or system human
Protocol: as §1, §2, §3, §4

[1] = Homo sapiens, HCT-116, 72 h, read-out: Mean IC50

With `Nc1ncn([C@H]2C[C@H](O)[C@@H](CO)O2)c(=O)n1` [DAC, 2′-deoxy-5-azacytidine] the IC50 (R2.1 (HCT116-RDAC); Homo sapiens, HCT-116, R2.1, MTT, 72 h drug treatment) was greater than 100000 nM, the “fold change (resistance index)” value (R2.1 (HCT116-RDAC); IC50 R2.1 / IC50 HCT116) was “(>357) fold” and the IC50 (HL-60) was 78 nM. For the same molecule, the IC50 (HL-60_RDAC; Homo sapiens, HL-60, read-out: Mean IC50) was greater than 100000 nM, the “fold change (resistance)” value (HL-60_RDAC; IC50 HL-60_RDAC / IC50 HL-60) was greater than 1289 fold and the IC50 (MCF-7) was 238 nM. The IC50 (R1.2 (HCT116-RDAC); [1]) was greater than 100000 nM, the “fold change (resistance index)” value (R1.2 (HCT116-RDAC); IC50 R1.2 / IC50 HCT116) was “(>357) fold” and the IC50 (HCT116; HCT-116, 72 h, read-out: Mean IC50) was 280 nM. For the same molecule, the IC50 (HCT116; HCT-116, 120 h, read-out: IC50 concentration of the drug) was 280 nM, the IC50 (R2.2 (HCT116-RDAC); [1]) was greater than 100000 nM and the “fold change (resistance index)” value (R2.2 (HCT116-RDAC); IC50 R2.2 / IC50 HCT116) was “(>357) fold”. The IC50 (R1.1 (HCT116-RDAC); [1]) was greater than 100000 nM, the “fold change (resistance index)” value (R1.1 (HCT116-RDAC); IC50 R1.1 / IC50 HCT116) was “(>357) fold” and the IC50 (R1.3 (HCT116-RDAC); [1]) was greater than 100000 nM. The “fold change (resistance index)” value (R1.3 (HCT116-RDAC); IC50 R1.3 / IC50 HCT116) was “(>357) fold”.
